Assay results reported in ChEMBL document CHEMBL3885861, “Open TG-GATES”.

Species: Rattus norvegicus
Assay: Open TG-GATES - Regimen: Daily Repeat
Assay type: toxicity, organism-based, Sprague-Dawley
Set-up: regimen Daily Repeat, gender Male, age 6 weeks
Settings: in vivo, po, route gavage; for KIDNEY_L / KIDNEY_R / KIDNEY_TOTAL: tissue Kidney; for AST / CRE / GLC / IP / K / LDH / RALB / TBIL / TC / TP / gamma-GTP: tissue Plasma
[1] = 0 mg/kg, 72 h, dose level Control, time 3 day
[2] = 0 mg/kg, 72 h, tissue Blood, dose level Control, time 3 day
[3] = 0 mg/kg, […], dose level Control, time 7 day
[4] = 0 mg/kg, […], dose level Control, time 14 day
[5] = 0 mg/kg, […], dose level Control, time 28 day
[6] = 0 mg/kg, […], tissue Blood, dose level Control, time 7 day
[7] = 0 mg/kg, […], tissue Blood, dose level Control, time 14 day
[8] = 0 mg/kg, […], tissue Blood, dose level Control, time 28 day
[9] = 10 mg/kg, 72 h, dose level Low, time 3 day
[10] = 10 mg/kg, 72 h, tissue Blood, dose level Low, time 3 day
[11] = 10 mg/kg, […], dose level Low, time 7 day
[12] = 10 mg/kg, […], dose level Low, time 14 day
[13] = 10 mg/kg, […], dose level Low, time 28 day
[14] = 10 mg/kg, […], tissue Blood, dose level Low, time 7 day
[15] = 10 mg/kg, […], tissue Blood, dose level Low, time 14 day
[16] = 10 mg/kg, […], tissue Blood, dose level Low, time 28 day

**Q.** What does the source list for `CN(C)CCCN1c2ccccc2CCc2ccccc21` [IMIPRAMINE]?
**A.** TERMINAL_BW [1]: 230.9 g; APTT [2]: 16.3 s; Bas [2]: 0%; Eos [2]: 1%; Fbg [2]: 278.8 mg/dL; Ht [2]: 40.6%; Lym [2]: 77.8%; MCHC [2]: 32.6%; MCV [2]: 63.2 fL; Mono [2]: 3%; PT [2]: 15.8 s; Plat [2]: 111.4 x10_4/uL; RBC [2]: 642.2 x10_4/ul; Ret [2]: 6.7%; KIDNEY_L [1]: 1 g; KIDNEY_R [1]: 1 g; KIDNEY_TOTAL [1]: 2 g; AST [1]: 68.2 IU/L; CRE [1]: 0.2 mg/dL; GLC [1]: 180.6 mg/dL; IP [1]: 7.7 mg/dL; K [1]: 4.2 meq/L; LDH [1]: 64.8 IU/L; RALB [1]: 2.6 g/dL; TBIL [1]: 0.056 mg/dL; TC [1]: 79.2 mg/dL; TP [1]: 5.7 g/dL; gamma-GTP [1]: 1 IU/L; TERMINAL_BW [3]: 270.9 g; TERMINAL_BW [4]: 328.3 g; TERMINAL_BW [5]: 419.8 g; APTT [6]: 15.4 s; Bas [6]: 0.2%; Eos [6]: 1%; Fbg [6]: 292 mg/dL; Ht [6]: 41.2%; Lym [6]: 77.4%; MCHC [6]: 32.9%; MCV [6]: 63.5 fL; Mono [6]: 2.4%; PT [6]: 15.4 s; Plat [6]: 123.5 x10_4/uL; RBC [6]: 649.4 x10_4/ul; Ret [6]: 6.1%; APTT [7]: 16 s; Bas [7]: 0.4%; Eos [7]: 0.8%; Fbg [7]: 279.4 mg/dL; Ht [7]: 42.1%; Lym [7]: 79.2%; MCHC [7]: 33.2%; MCV [7]: 60.6 fL; Mono [7]: 1.8%; PT [7]: 15.6 s; Plat [7]: 119.8 x10_4/uL; RBC [7]: 695.6 x10_4/ul; Ret [7]: 4.6%; APTT [8]: 15.9 s; Bas [8]: 0%; Eos [8]: 1.2%; Fbg [8]: 294.2 mg/dL; Ht [8]: 44.1%; Lym [8]: 80.6%; MCHC [8]: 33.5%; MCV [8]: 57.9 fL; Mono [8]: 2.2%; PT [8]: 15.4 s; Plat [8]: 94.4 x10_4/uL; RBC [8]: 761.4 x10_4/ul; Ret [8]: 2.4%; KIDNEY_L [3]: 1.1 g; KIDNEY_R [3]: 1.1 g; KIDNEY_TOTAL [3]: 2.2 g; KIDNEY_L [4]: 1.3 g; KIDNEY_R [4]: 1.2 g; KIDNEY_TOTAL [4]: 2.5 g; KIDNEY_L [5]: 1.4 g; KIDNEY_R [5]: 1.4 g; KIDNEY_TOTAL [5]: 2.9 g; AST [3]: 66.2 IU/L; CRE [3]: 0.2 mg/dL; GLC [3]: 185.6 mg/dL; IP [3]: 7.7 mg/dL; K [3]: 4 meq/L; LDH [3]: 114 IU/L; RALB [3]: 2.6 g/dL; TBIL [3]: 0.056 mg/dL; TC [3]: 81.4 mg/dL; TP [3]: 5.9 g/dL; gamma-GTP [3]: 0.4 IU/L; AST [4]: 63.6 IU/L; CRE [4]: 0.2 mg/dL; GLC [4]: 183.8 mg/dL; IP [4]: 6.8 mg/dL; K [4]: 4.2 meq/L; LDH [4]: 97.4 IU/L; RALB [4]: 2.6 g/dL; TBIL [4]: 0.05 mg/dL; TC [4]: 72.6 mg/dL; TP [4]: 5.9 g/dL; gamma-GTP [4]: 1 IU/L; AST [5]: 55.6 IU/L; CRE [5]: 0.2 mg/dL; GLC [5]: 188.8 mg/dL; IP [5]: 6.9 mg/dL; K [5]: 3.9 meq/L; LDH [5]: 43.4 IU/L; RALB [5]: 2.8 g/dL; TBIL [5]: 0.056 mg/dL; TC [5]: 68 mg/dL; TP [5]: 6.3 g/dL; gamma-GTP [5]: 0.6 IU/L; TERMINAL_BW [9]: 229.5 g; APTT [10]: 16.1 s; Bas [10]: 0%; Eos [10]: 1%; Fbg [10]: 294 mg/dL; Ht [10]: 41.4%; Lym [10]: 82.6%; MCHC [10]: 32.5%; MCV [10]: 65.4 fL; Mono [10]: 2.8%; Neu [10]: 12.8%; PT [10]: 15.9 s; Plat [10]: 115.2 x10_4/uL; RBC [10]: 633 x10_4/ul; Ret [10]: 5.6%; KIDNEY_L [9]: 1 g; KIDNEY_R [9]: 1 g; KIDNEY_TOTAL [9]: 2 g; AST [9]: 67 IU/L; CRE [9]: 0.2 mg/dL; GLC [9]: 185.4 mg/dL; IP [9]: 7.7 mg/dL; K [9]: 4.1 meq/L; LDH [9]: 63.4 IU/L; RALB [9]: 2.6 g/dL; TBIL [9]: 0.06 mg/dL; TC [9]: 81.6 mg/dL; TP [9]: 5.8 g/dL; gamma-GTP [9]: 1 IU/L; TERMINAL_BW [11]: 262.8 g; TERMINAL_BW [12]: 310.9 g; TERMINAL_BW [13]: 402.9 g; APTT [14]: 15.6 s; Bas [14]: 0%; Eos [14]: 1.2%; Fbg [14]: 291.6 mg/dL; Ht [14]: 40.2%; Lym [14]: 80%; MCHC [14]: 33.3%; MCV [14]: 62.5 fL; Mono [14]: 1.8%; PT [14]: 15.9 s; Plat [14]: 120.1 x10_4/uL; RBC [14]: 644.6 x10_4/ul; Ret [14]: 4.8%; APTT [15]: 16.5 s; Bas [15]: 0.2%; Eos [15]: 0.8%; Fbg [15]: 281.2 mg/dL; Ht [15]: 41.8%; Lym [15]: 83.2%; MCHC [15]: 33.8%; MCV [15]: 60.5 fL; Mono [15]: 2.2%; PT [15]: 16.3 s; Plat [15]: 108.3 x10_4/uL; RBC [15]: 691.6 x10_4/ul; Ret [15]: 4.1%; APTT [16]: 17.3 s; Bas [16]: 0.4%; Eos [16]: 1.4%; Fbg [16]: 284.6 mg/dL; Ht [16]: 43.7%; Lym [16]: 81.4%; MCHC [16]: 34%; MCV [16]: 56.5 fL; Mono [16]: 2.4%; PT [16]: 16.4 s; Plat [16]: 96.2 x10_4/uL; RBC [16]: 773.2 x10_4/ul; Ret [16]: 2.3%; KIDNEY_L [11]: 1.1 g; KIDNEY_R [11]: 1.1 g; KIDNEY_TOTAL [11]: 2.1 g; KIDNEY_L [12]: 1.3 g; KIDNEY_R [12]: 1.2 g; KIDNEY_TOTAL [12]: 2.5 g; KIDNEY_L [13]: 1.4 g; KIDNEY_R [13]: 1.3 g; KIDNEY_TOTAL [13]: 2.7 g; AST [11]: 63.8 IU/L; CRE [11]: 0.2 mg/dL; GLC [11]: 182.6 mg/dL; IP [11]: 7.4 mg/dL; K [11]: 4.2 meq/L; LDH [11]: 123.4 IU/L; RALB [11]: 2.6 g/dL; TBIL [11]: 0.05 mg/dL; TC [11]: 75.8 mg/dL; TP [11]: 5.9 g/dL; gamma-GTP [11]: 0.8 IU/L; AST [12]: 66.4 IU/L; CRE [12]: 0.2 mg/dL; GLC [12]: 175.6 mg/dL; IP [12]: 6.8 mg/dL; K [12]: 4.3 meq/L; LDH [12]: 62.8 IU/L; RALB [12]: 2.7 g/dL; TBIL [12]: 0.048 mg/dL; TC [12]: 72 mg/dL; TP [12]: 6.2 g/dL; gamma-GTP [12]: 0.4 IU/L; AST [13]: 62.2 IU/L; CRE [13]: 0.2 mg/dL; GLC [13]: 183.2 mg/dL; IP [13]: 6.9 mg/dL; K [13]: 3.8 meq/L; LDH [13]: 53.6 IU/L; RALB [13]: 2.8 g/dL; TBIL [13]: 0.052 mg/dL; TC [13]: 64.2 mg/dL; TP [13]: 6.3 g/dL; gamma-GTP [13]: 1 IU/L
